# Results taken from US9901592B2 (priority 2008, dated 2018).
# How the values were obtained:
# [1] = test system: ribosome erm-dimethylated at A2058; assay: binding to the ribosome
# S. pneumoniae = assay type: cell-based
# S. aureus = assay type: cell-based
structure (smiles),measurement,setting,value
CC[C@H]1OC(=O)[C@H](C)[C@@H](OC2CC(C)(OC)C(O)C(C)O2)[C@H](C)[C@@H](OC2OC(C)CC(N(C)C)C2O)[C@@](C)(OC)C[C@@H](C)C(=O)[C@H](C)[C@H]2N(CCCCn3cc(-c4cccc(N)c4)nn3)C(=O)O[C@]12C (stereo partly drawn) [Entry 20c],binding to the ribosome,[1],considerable binding
same,MIC,S. pneumoniae,≦0.0625 μg/mL
same,MIC,S. aureus,8 µg/mL
